Reference: patent publication US7803757B2, “Peptides based on the sequence of human lactoferrin and their use” (PharmaSurgics in Sweden AB, priority 1998, dated 2010)
Converted amounts (≈) assume the structure as drawn. Like-named read-outs stand apart in the source and are kept apart here. Bridge positions count the residues as written; N and C are the ends. Ends that are not written are not given here. Peptide text beside a SMILES is read from it.

How the values were obtained:
Format in all cases: cell-based
[1] = system: S. epidermis; assay: killing of bacteria at fixed peptide concentration, S. epidermis (Example 12); conditions: peptide 25 μg/ml
Method: (§1) In this example, the peptides according to the invention were used to study the effect on the killing of different bacteria.
(§2) The peptides were used at a concentration of 25 μg/ml.

[2] = system: P. aeruginosa; assay: killing of bacteria at fixed peptide concentration, P. aeruginosa (Example 12); conditions: peptide 25 μg/ml
Method: as §1, §2

[3] = system: C. albicans (ATCC64549)
Method: (§3) In the examples, the minimal microbicidal concentrations (MMC) and minimal inhibitory concentrations (MIC) were determined as follows, unless otherwise specified in the examples. Bacterial or fungal strains were cultured in BHI medium over night at 37° C. A volume of the culture was transferred to a new tube with BHI and incubated for two more hours. Thereafter the cells were spun down and the pellet was suspended in BHI medium diluted 1/100 (1% BHI). The concentration of bacterial or fungal cells was spectrophotometrically determined at 650 nm. The microbial concentrations were also determined by viable counts. Peptides serially diluted in 1% BHI by twofold or tenfold steps were added in triplicate to the wells of a microtiterplate (200 μl per well). The bacterial or fungal cell solutions were added in 10 μl volumes to give a final concentration of approximately 1-5×10^5 cells per ml in the well. The microplate was incubated at 37° C. in a humid chamber for two hours. Thereafter 5 μl was taken from each well and added as a drop onto a blood agar plate and incubated over night at 37° C. The microplate was incubated for another 20 hours at 37° C. and thereafter analysed spectrophotometrically at 650 nm in a microplate reader (Emax, Molecular Devices, USA). The concentration of peptide causing a 99% reduction of the inoculum after 2 hours of incubation was defined as the MMC99%. The MIC value was defined as the concentration giving no increase in the absorbance value above the background level after 20 hours of incubation.
(§4) C. albicans (ATCC64549) and E. coli O6, respectively, were incubated with the different peptides. The experiments were performed with 1, 10, 25 and 100 μg/ml of peptide.

[4] = system: E. coli O6
Method: as §3, §4

[5] = system: K. pneumoniae; assay: killing of bacteria at fixed peptide concentration, K. pneumoniae (Example 12); conditions: peptide 25 μg/ml
Method: as §1, §2

[6] = system: C. albicans yeast cells (ATCC64549); assay: killing and growth inhibition of C. albicans at pH 4.5 (Example 11); design: key to C. albicans inhibition (OD650): + = no increase in OD650 is seen; − = OD650 continues to increase; conditions: pH 4.5, 1% BHI, 25 μg/ml of the peptide; for C. albicans inhibition (OD650): OD650 after an additional 18 hours; for C. albicans killing: 99% / C. albicans killing: 100%: 2 hours
Method: C. albicans yeast cells (ATCC64549) were incubated for 2 hours at pH 4.5 in BHI medium diluted to 1% of the original concentration containing 25 µg/ml of the peptide. Thereafter the fungal solutions were cultured on blood agar plates. OD650 was measured after incubation during an additional 18 hours. The fungicidal effect of the peptides on C. albicans was determined as the ability of the peptide to kill 100% and 99%, respectively, of the fungus, while the growth inhibitory effect was determined by measuring the OD650. An inhibitory effect existed when no increase in OD650 was recorded.

[7] = system: S. aureus; assay: killing of bacteria at fixed peptide concentration, S. aureus (Example 12); conditions: peptide 25 μg/ml
Method: as §1, §2

[8] = system: E. faecalis; assay: killing of bacteria at fixed peptide concentration, E. faecalis (Example 12); conditions: peptide 25 μg/ml
Method: as §1, §2

[9] = C. albicans, tested at 1, 10, 25 and 100 μg/ml of peptide
[10] = E. coli O6, tested at 1, 10, 25 and 100 μg/ml of peptide

## CSCC[C@@H]1NC(=O)[C@@H](NC(=O)[C@H](CCCNC(=N)N)NC(=O)[C@@H]2CC(=O)NCCCC[C@H](NC(=O)[C@H](CCCCN)NC(=O)[C@@H](NC(C)=O)[C@@H](C)O)C(=O)N[C@@H](Cc3ccccc3)C(=O)N[C@@H](CCC(N)=O)C(=O)N[C@@H](Cc3c[nH]c4ccccc34)C(=O)N2)CCCCNC(=O)C[C@@H](C(=O)N[C@@H](CCCNC(=N)N)C(N)=O)NC(=O)[C@H](CCCCN)NC(=O)[C@H](CCCNC(=N)N)NC1=O [Peptide 61] (Ac-TKKFQWDRKMRKDR-NH2; lactam 3-7, 9-13; N-terminus and C-terminus assumed)
[1]
  killing of bacteria: S. epidermis: + (+ = 99% of the bacteria are killed)
[2]
  killing of bacteria: P. aeruginosa: + (+ = 99% of the bacteria are killed)
[3]; ATCC64549
  MIC: 10 µg/mL (≈ 5.19 µM)
[3]; [9]
  MMC99%: 10 µg/mL
[4]; [10]
  MMC99%: 10 µg/mL
[4]; O6
  MIC: 10 µg/mL (≈ 5.19 µM)
[5]
  killing of bacteria: K. pneumoniae: + (+ = 99% of the bacteria are killed)
[6]
  C. albicans inhibition (OD650): +
  C. albicans killing: 99%: + (+ = 100/99% of the bacteria are killed)
  C. albicans killing: 100%: − (− = less than 100/99% of the bacteria are killed)
[7]
  killing of bacteria: S. aureus: + (+ = 99% of the bacteria are killed)
[8]
  killing of bacteria: E. faecalis: + (+ = 99% of the bacteria are killed)

## Ac-TKCFQWQRNMRKVR-NH2 [Peptide 51]
[1]
  killing of bacteria: S. epidermis: + (+ = 99% of the bacteria are killed)
[2]
  killing of bacteria: P. aeruginosa: + (+ = 99% of the bacteria are killed)
[3]; ATCC64549
  MIC: 10 µg/mL
[3]; [9]
  MMC99%: 10 µg/mL
[4]; [10]
  MMC99%: 10 µg/mL
[4]; O6
  MIC: 10 µg/mL
[5]
  killing of bacteria: K. pneumoniae: + (+ = 99% of the bacteria are killed)
[6]
  C. albicans inhibition (OD650): +
  C. albicans killing: 99%: + (+ = 100/99% of the bacteria are killed)
  C. albicans killing: 100%: + (+ = 100/99% of the bacteria are killed)
[7]
  killing of bacteria: S. aureus: + (+ = 99% of the bacteria are killed)
[8]
  killing of bacteria: E. faecalis: + (+ = 99% of the bacteria are killed)

## EATKCFQWQRNMRKVR [Peptide 64]
[1]
  killing of bacteria: S. epidermis: + (+ = 99% of the bacteria are killed)
[2]
  killing of bacteria: P. aeruginosa: − (− = less than 99% of the bacteria are killed)
[3]; ATCC64549
  MIC: 10 µg/mL
[3]; [9]
  MMC99%: 25 µg/mL
[4]; [10]
  MMC99%: 10 µg/mL
[4]; O6
  MIC: 10 µg/mL
[5]
  killing of bacteria: K. pneumoniae: − (− = less than 99% of the bacteria are killed)
[6]
  C. albicans inhibition (OD650): +
  C. albicans killing: 99%: + (+ = 100/99% of the bacteria are killed)
  C. albicans killing: 100%: − (− = less than 100/99% of the bacteria are killed)
[7]
  killing of bacteria: S. aureus: + (+ = 99% of the bacteria are killed)
[8]
  killing of bacteria: E. faecalis: + (+ = 99% of the bacteria are killed)

## FQWQRNMRKVR [Peptide 44]
[1]
  killing of bacteria: S. epidermis: + (+ = 99% of the bacteria are killed)
[2]
  killing of bacteria: P. aeruginosa: − (− = less than 99% of the bacteria are killed)
[3]; ATCC64549
  MIC: 10 µg/mL
[3]; [9]
  MMC99%: 10 µg/mL
[4]; [10]
  MMC99%: 10 µg/mL
[4]; O6
  MIC: 10 µg/mL
[5]
  killing of bacteria: K. pneumoniae: − (− = less than 99% of the bacteria are killed)
[6]
  C. albicans inhibition (OD650): −
  C. albicans killing: 99%: − (− = less than 100/99% of the bacteria are killed)
  C. albicans killing: 100%: − (− = less than 100/99% of the bacteria are killed)
[7]
  killing of bacteria: S. aureus: + (+ = 99% of the bacteria are killed)
[8]
  killing of bacteria: E. faecalis: + (+ = 99% of the bacteria are killed)

## Peptide 57: 14 amino acids, modified positions 18-31 of human lactoferrin; sequence only in sequence listing (TKKFQWQRNMRKVR)
[1]
  killing of bacteria: S. epidermis: + (+ = 99% of the bacteria are killed)
[2]
  killing of bacteria: P. aeruginosa: + (+ = 99% of the bacteria are killed)
[3]; [9]
  MIC: 10 µg/mL
  MMC99%: 25 µg/mL
[4]; [10]
  MIC: 10 µg/mL
  MMC99%: 10 µg/mL
[5]
  killing of bacteria: K. pneumoniae: + (+ = 99% of the bacteria are killed)
[6]
  C. albicans inhibition (OD650): +
  C. albicans killing: 99%: + (+ = 100/99% of the bacteria are killed)
  C. albicans killing: 100%: + (+ = 100/99% of the bacteria are killed)
[7]
  killing of bacteria: S. aureus: + (+ = 99% of the bacteria are killed)
[8]
  killing of bacteria: E. faecalis: + (+ = 99% of the bacteria are killed)

## Peptide 66: third embodiment, comprises a cysteine; sequence only in sequence listing (PEATKCFQWQRNMRKVR)
[1]
  killing of bacteria: S. epidermis: + (+ = 99% of the bacteria are killed)
[2]
  killing of bacteria: P. aeruginosa: − (− = less than 99% of the bacteria are killed)
[5]
  killing of bacteria: K. pneumoniae: − (− = less than 99% of the bacteria are killed)
[6]
  C. albicans inhibition (OD650): +
  C. albicans killing: 99%: + (+ = 100/99% of the bacteria are killed)
  C. albicans killing: 100%: − (− = less than 100/99% of the bacteria are killed)
[7]
  killing of bacteria: S. aureus: + (+ = 99% of the bacteria are killed)
[8]
  killing of bacteria: E. faecalis: + (+ = 99% of the bacteria are killed)

## QPEATKCFQWQRNMRKVR [Peptide 33]
[1]
  killing of bacteria: S. epidermis: + (+ = 99% of the bacteria are killed)
[2]
  killing of bacteria: P. aeruginosa: − (− = less than 99% of the bacteria are killed)
[3]; ATCC64549
  MIC: 10 µg/mL
[3]; [9]
  MMC99%: 100 µg/mL
[4]; [10]
  MMC99%: 25 µg/mL
[4]; O6
  MIC: 10 µg/mL
[5]
  killing of bacteria: K. pneumoniae: − (− = less than 99% of the bacteria are killed)
[6]
  C. albicans inhibition (OD650): −
  C. albicans killing: 99%: − (− = less than 100/99% of the bacteria are killed)
  C. albicans killing: 100%: − (− = less than 100/99% of the bacteria are killed)
[7]
  killing of bacteria: S. aureus: + (+ = 99% of the bacteria are killed)
[8]
  killing of bacteria: E. faecalis: + (+ = 99% of the bacteria are killed)

## QWQRNMRKVR [Peptide 40]
[1]
  killing of bacteria: S. epidermis: + (+ = 99% of the bacteria are killed)
[2]
  killing of bacteria: P. aeruginosa: − (− = less than 99% of the bacteria are killed)
[3]; ATCC64549
  MIC: 25 µg/mL
[3]; [9]
  MMC99%: 25 µg/mL
[4]; [10]
  MMC99%: >25 µg/mL
[4]; O6
  MIC: >25 µg/mL
[5]
  killing of bacteria: K. pneumoniae: − (− = less than 99% of the bacteria are killed)
[6]
  C. albicans inhibition (OD650): −
  C. albicans killing: 99%: − (− = less than 100/99% of the bacteria are killed)
  C. albicans killing: 100%: − (− = less than 100/99% of the bacteria are killed)
[7]
  killing of bacteria: S. aureus: − (− = less than 99% of the bacteria are killed)
[8]
  killing of bacteria: E. faecalis: − (− = less than 99% of the bacteria are killed)
